Measured values published in PubChem BioAssay AID1919004 (Molecular Pharmacology Branch, DTP, NCI, 2023).

System: 883617-216-R-J1-PDC complex spheroids, growth, % test/control
Assay: Anticancer human tumor 883617-216-R-J1-PDC patient-derived bladder carcinoma cell line growth inhibition [AhR]
Details: for IC50: curve of first compound; for viability, T/C: stronger effect = lower value
From the text: Multicellular complex tumor spheroid response to aryl hydrocarbon receptor antagonists in combination with a variety of drugs and investigational agents in selected tumor cell lines
The current study was undertaken to assess response to aryl hydrocarbon receptor antagonists in combination with standard-of-care drugs and investigational agents in solid tumor complex spheroid models. Complex spheroids include a stromal component modeled by human endothelial cells (HUVEC) and fibroblasts modeled by human mesenchymal stem cells (MSCs). The concentration ranges selected for each drug and investigational agent were based upon clinically achievable concentrations if the clinical Cmax of the agent was known.
Compounds. The drugs and investigational agents: BAY 2416964 (NSC825713), GNF351 (NSC835774), CH-223191 (NSC835775), CPI-455 (NSC825282), aza-TdCyd (NSC777586), decitabine (NSC127716), belinostat (NSC758774), entinostat (NSC756642), pevonedistat (NSC761192), tazemetostat (NSC777109), talazoparib (NSC765396), olaparib (NSC753686), selinexor (NSC780203), nedisertib (M3814, NSC802822), bortezomib (NSC756655), venetoclax (NSC766270), doxorubicin (NSC123127), elimusertib (BAY189344, NSC800525), ceralasertib (AZD6738, NSC777638), TAK-243 (NSC785004), alisertib (NSC759677), etoposide (NSC141540), topotecan (NSC609699), eribulin (NSC707389), gemcitabine (NSC613327), carboplatin (NSC241240), cisplatin (NSC119875), and SN-38 (NSC673596) were obtained from the National Cancer Institute (NCI) Developmental Therapeutics Program Chemical Repository (32). The FDA-approved anticancer drug set is available from the Developmental Therapeutics Program at https://dtp.cancer.gov/organization/dscb/obtaining/available plates.htm. […] The stock solutions were prepared in dimethyl sulfoxide (DMSO, Sigma-Aldrich, St. Louis, MO, cat. D2650), except for the platinum compounds which were prepared in saline (Quality Biological, Gaithersburg, MD, cat. 114-055-101), at 800-fold the tested concentration and stored at -70 degrees C prior to their use. All drugs and investigational agents were tested over a range starting from a high concentration at or near the clinical Cmax and decreasing in half-log increments. If the clinical Cmax for an agent had not been determined, the highest concentration tested was 10 microM (Table 1).
Cell Culture. All cells were maintained in an incubator at 37 degrees C and 5% CO2 with 95% humidity. The PDC lines were cultured according to standard operating procedures established by the NCI PDMR (https://pdmr.cancer.gov). Briefly, all PDCs were thawed and cultured in Matrigel-coated flasks prepared with a working solution of 1X Ham's F-12 nutrient mix, without supplementation (Invitrogen, Waltham, MA, cat. 11765054), 100 U/mL penicillin-streptomycin (Invitrogen, cat. 15140122), and 2.5% Matrigel (Corning Inc., Corning, NY, cat. 354248) for the first three passages. All PDCs were cultured in complete DMEM/F-12 media containing advanced DMEM/F-12 (Invitrogen, cat. 12634028), 4.9% defined fetal bovine serum, heat inactivated (HyClone Laboratories Inc., Logan, UT, cat. SH30070.03HI), 389 ng/mL hydrocortisone (Sigma-Aldrich, cat. H4001), 9.7 ng/mL human EGF recombinant protein (Invitrogen, cat. PHG0313), 23.4 microg/mL adenine (Sigma-Aldrich, cat. A2786), 97.3 U/mL penicillin-streptomycin (Invitrogen, cat. 15140122), 1.9 mM L-glutamine (Invitrogen, cat. 25030081), and 9.7 microM Y-27632 dihydrochloride (Tocris Bioscience, Bristol, United Kingdom, cat. 1254). The PDCs were cultured in complete DMEM/F12 media without 10 microM Y-27632 dihydrochloride for at least two passages prior to the screen. The established cell lines NCI-H1341 and […] were cultured in DMEM/F-12, HEPES (Invitrogen, cat. 11330032), 5% defined fetal bovine serum (HyClone Laboratories Inc., cat. SH30070.03), ITS premix universal culture supplement [insulin (5 microg/mL), transferrin (5 microg/mL), and selenious acid (5 ng/mL)] […]
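Further: exposure lasted 7 days after dosing on day 3 of spheroid growth.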

CCc1c2c(nc3ccc(O)cc13)-c1cc3c(c(=O)n1C2)COC(=O)[C@]3(O)CC + CC(CO)NC(=O)c1cc(-c2ccc(Cl)cc2)nn(-c2cnn(C)c2)c1=O gave an IC50 (second compound 0.1 µM) greater than 300 nM, an IC50 (second compound 0.316 µM) greater than 300 nM and an IC50 (second compound 1 µM) greater than 300 nM. For the same molecule, the IC50 (second compound 3.16 µM) was greater than 300 nM, the IC50 (second compound 10 µM) was 300 nM and the viability, T/C (second compound 0.1 µM, first compound 0.000949 µM) was 50.4%. For the same molecule, the viability, T/C (second compound 0.1 µM, first compound 0.003 µM) was 64.7%, the viability, T/C (second compound 0.1 µM, first compound 0.00949 µM) was 66.9% and the viability, T/C (second compound 0.1 µM, first compound 0.03 µM) was 39.6%. It also gave a viability, T/C (second compound 0.1 µM, first compound 0.0949 µM) of 85.5%, a viability, T/C (second compound 0.1 µM, first compound 0.3 µM) of 86% and a viability, T/C (second compound 0.316 µM, first compound 0.000949 µM) of 68.2%. The viability, T/C (second compound 0.316 µM, first compound 0.003 µM) was 63.3%, the viability, T/C (second compound 0.316 µM, first compound 0.00949 µM) was 87.4% and the viability, T/C (second compound 0.316 µM, first compound 0.03 µM) was 47.8%. The viability, T/C (second compound 0.316 µM, first compound 0.0949 µM) was 69.9%, the viability, T/C (second compound 0.316 µM, first compound 0.3 µM) was 80.7% and the viability, T/C (second compound 1 µM, first compound 0.000949 µM) was 83.1%. It also gave a viability, T/C (second compound 1 µM, first compound 0.003 µM) of 88.2%, a viability, T/C (second compound 1 µM, first compound 0.00949 µM) of 145% and a viability, T/C (second compound 1 µM, first compound 0.03 µM) of 64.1%. It also gave a viability, T/C (second compound 1 µM, first compound 0.0949 µM) of 89.4%, a viability, T/C (second compound 1 µM, first compound 0.3 µM) of 63.9% and a viability, T/C (second compound 3.16 µM, first compound 0.000949 µM) of 110%. The viability, T/C (second compound 3.16 µM, first compound 0.003 µM) was 63.3%, the viability, T/C (second compound 3.16 µM, first compound 0.00949 µM) was 40.5% and the viability, T/C (second compound 3.16 µM, first compound 0.03 µM) was 77.9%. For the same molecule, the viability, T/C (second compound 3.16 µM, first compound 0.0949 µM) was 92.7%, the viability, T/C (second compound 3.16 µM, first compound 0.3 µM) was 73.8% and the viability, T/C (second compound 10 µM, first compound 0.000949 µM) was 73.2%. For the same molecule, the viability, T/C (second compound 10 µM, first compound 0.003 µM) was 61.7%, the viability, T/C (second compound 10 µM, first compound 0.00949 µM) was 103% and the viability, T/C (second compound 10 µM, first compound 0.03 µM) was 87.3%. The viability, T/C (second compound 10 µM, first compound 0.0949 µM) was 43.6% and the viability, T/C (second compound 10 µM, first compound 0.3 µM) was 57.4%.

Work on O=C(c1cc(Cc2n[nH]c(=O)c3ccccc23)ccc1F)N1CCN(C(=O)C2CC2)CC1 + CC(CO)NC(=O)c1cc(-c2ccc(Cl)cc2)nn(-c2cnn(C)c2)c1=O yielded an IC50 (second compound 0.1 µM) greater than 10000 nM, an IC50 (second compound 0.316 µM) greater than 10000 nM and an IC50 (second compound 1 µM) greater than 10000 nM. The IC50 (second compound 3.16 µM) was greater than 10000 nM, the IC50 (second compound 10 µM) was greater than 10000 nM and the viability, T/C (second compound 0.1 µM, first compound 0.0316 µM) was 107%. For the same molecule, the viability, T/C (second compound 0.1 µM, first compound 0.1 µM) was 109%, the viability, T/C (second compound 0.1 µM, first compound 0.316 µM) was 78.8% and the viability, T/C (second compound 0.1 µM, first compound 1 µM) was 124%. For the same molecule, the viability, T/C (second compound 0.1 µM, first compound 3.16 µM) was 118%, the viability, T/C (second compound 0.1 µM, first compound 10 µM) was 80.2% and the viability, T/C (second compound 0.316 µM, first compound 0.0316 µM) was 80%. It also gave a viability, T/C (second compound 0.316 µM, first compound 0.1 µM) of 114%, a viability, T/C (second compound 0.316 µM, first compound 0.316 µM) of 115% and a viability, T/C (second compound 0.316 µM, first compound 1 µM) of 92.3%. For the same molecule, the viability, T/C (second compound 0.316 µM, first compound 3.16 µM) was 72.4%, the viability, T/C (second compound 0.316 µM, first compound 10 µM) was 87.1% and the viability, T/C (second compound 1 µM, first compound 0.0316 µM) was 122%. It also gave a viability, T/C (second compound 1 µM, first compound 0.1 µM) of 124%, a viability, T/C (second compound 1 µM, first compound 0.316 µM) of 111% and a viability, T/C (second compound 1 µM, first compound 1 µM) of 104%. The viability, T/C (second compound 1 µM, first compound 3.16 µM) was 137%, the viability, T/C (second compound 1 µM, first compound 10 µM) was 97% and the viability, T/C (second compound 3.16 µM, first compound 0.0316 µM) was 120%. The viability, T/C (second compound 3.16 µM, first compound 0.1 µM) was 88.5%, the viability, T/C (second compound 3.16 µM, first compound 0.316 µM) was 85.5% and the viability, T/C (second compound 3.16 µM, first compound 1 µM) was 105%. It also gave a viability, T/C (second compound 3.16 µM, first compound 3.16 µM) of 119%, a viability, T/C (second compound 3.16 µM, first compound 10 µM) of 82.3% and a viability, T/C (second compound 10 µM, first compound 0.0316 µM) of 126%. The viability, T/C (second compound 10 µM, first compound 0.1 µM) was 84.7%, the viability, T/C (second compound 10 µM, first compound 0.316 µM) was 128% and the viability, T/C (second compound 10 µM, first compound 1 µM) was 98.9%. The viability, T/C (second compound 10 µM, first compound 3.16 µM) was 64.2% and the viability, T/C (second compound 10 µM, first compound 10 µM) was 104%.
